{"source": "patent US20070015827A1", "about": "“Methods and compositions for treating ophthalmic conditions via serum retinol, serum retinol binding protein (RBP), and/or serum retinol-RBP modulation” (Sytera, Inc., priority 2005, published 2007)", "type_in_all_cases": "in vivo, mouse", "key": {"[1]": {"tested_on": "abca4 null mutant mice", "experiment": "A2E and A2PE-H2 in eyes after chronic treatment (HPLC)", "experimental": "Tissue Extraction. Eye samples were thawed on ice in 1 ml of PBS, pH 7.2 and homogenized by hand using a Duall glass-glass homogenizer. The sample was further homogenized following the addition of 1 ml chlorofomm/methanol (2:1, v/v). The sample was transferred to a boroscilicate tube and lipids were extracted into 4 mls of chloroform. The organic extract was washed with 3 mls PBS, pH 7.2 and the samples were then centrifuged at 3,000×g, 10 min. The choloroform phase was decanted and the aqueous phase was re-extracted with another 4 mls of chloroform. Following centrifugation, the chloroform phases were combined and the samples were taken to dryness under nitrogen gas. Samples residues were resuspended in 100 μl hexane and analyzed by HPLC as described below.\nHPLC Analysis. Chromatographic separations were achieved on an Agilent Zorbax Rx-Sil Column (5 μm, 4.6×250 mm) using an Agilent 1100 series liquid chromatograph equipped with fluorescence and diode array detectors. The mobile phase (hexane/2-propanol/ethanol/25 mM KH2PO4, pH 7.0/acetic acid; 485/376/100/50/0.275, v/v) was delivered at 1 ml/min. Sample peak identification was made by comparison to retention time and absorbance spectra of authentic standards. Data are reported as peak fluorescence (L.U.) obtained from the fluorescence detector.\nWe initiated a one-month study to evaluate the effects of HPR on reduction of A2E and A2E precursors in abca4 null mutant mice. HPR was administered in DMSO (20 mg/kg, ip) to abca4 null mutant mice (BL6/129, aged 2 months) daily for a period of 28 days. Control age/strain matched mice received only the DMSO vehicle. Mice were sampled at 0, 14, and 28 days (n=3 per group), the eyes were enucleated and chloroform-soluble constituents (lipids, retinoids and lipid-retinoid conjugates) were extracted. Mice were sacrificed by cervical dislocation, the eyes were enucleated and individually snap frozen in cryo vials. The sample extracts were then analyzed by HPLC with on-line fluorescence detection. Results from this study show remarkable, early reductions in the A2E precursor, A2PE-H2, see FIG. 4a, and subsequent reductions in A2E, see FIG. 4b. […] A similar study may be undertaken to ascertain effects of HPR treatment on the electroretinographic and morphological phenotypes.\nABCA4 null mutant mice were given the indicated dose of HPR in DMSO or DMSO alone daily for 28 days (n=16 mice per treatment group). At study onset, mice in the 2.5 mg/kg group were 2 months of age, mice in the other treatment groups were 3 months of age. At the indicated times, representative mice were taken from each group (n =4) for analysis of A2E precursor compounds (see FIG. 10, A2PE-H2, panels A, C and E) and A2E (see FIG. 10, panels B, D and F). Eyes were enucleated, hemisected and lipid soluble components were extracted from the posterior pole by chloroform/methanol-water phase partitioning. Sample extracts were analyzed by LC. Identity of the eluted compounds was confirmed by UV-vis absorption spectroscopy and co-elution of sample peaks with authentic standards. Note: limitations in appropriately age and strain-matched mice in the 10 mg/kg group prevented analysis at the 14-day interval.\nExtraction and Analysis of Retinoids and A2E. Steady-state levels of retinoids and A2E in eyecups of ABCA4−/− mice were determined following daily administration (28 days) of HPR (FIG. 12). Mice were sacrificed, the eyes enucleated, and the posterior portion of each eye was used for extraction of retinoids or A2E. Methodologies used for extraction of retinoids and A2E from eye tissue and HPLC analysis techniques have been described. See, e.g., Mata N L, Weng J, Travis G H. Biosynthesis of a major lipofuscin fluorophore in mice and humans with ABCR-mediated retinal and macular degeneration. Proc Natl Acad Sci USA. 2000; 97:7154-7159; Weng J, et al.; Cell. 1999;98:13-23; Mata N L, et al.; Invest. Ophthalmol. Visual Sci. 2001; 42:1685-1690. […]"}, "[2]": {"tested_on": "abca4 null mutant mice", "experiment": "Serum retinol after 28 days of daily HPR (LC/MS, HPLC)", "settings": "for effect on serum retinol (in words): ABCA4 null mice", "experimental": "ABCA4 null mutant mice were given the indicated dose of HPR in DMSO (i.p.) daily for 28 days (n=4 mice per dosage group). At the end of the study period, blood samples were taken and serum was prepared. Following acetonitrile precipitation of serum proteins, the concentrations of retinol and HPR were determined from the soluble phase by LC/MS (see FIG. 7). Identity of the eluted compounds was confirmed by UV-vis absorption spectroscopy and co-elution of sample peaks with authentic standards.\nAnalysis of Serum Retinol. Whole blood was collected from tail veins of HPR-treated mice 18 hrs. following the final HPR dose (i.e., at day 28). Serum was obtained from whole blood following centrifugation at 1,500×g, 10 min. Serum proteins were precipitated with the addition of an equivolume of ice-cold acetonitrile and centrifugation (10,000×g, 10 min). An aliquot was removed from the soluble phase and analyzed by HPLC using an Agilent 1100 series capillary liquid chromatograph equipped with a diode-array detector. Chromatography was performed on a Zorbax SB C18 5 μm column (150×0.5 mm) equilibrated with acetonitrile/water/glacial acetic acid (80:18:2, v/v) at a flow rate of 10 μl/min."}, "[3]": {"tested_on": "abca4 −/− mice", "experiment": "HPR and retinaldehyde content after 7 days, dark- and light-adapted", "settings": "HPR 10 mg/kg/day", "experimental": "The effect of HPR on visual chromophore biosynthesis was examined in a separate study in which a […] of HPR (10 mg/kg/day) was administered to abca4 −/− mice over a 7-day period."}, "[4]": {"tested_on": "abca4 −/− mice", "experiment": "A2E levels after withdrawal of chronic treatment", "settings": "chronic treatment (HPR 10 mg/kg i.p.) stopped after 28 days; measured 12, 28 and 42 days later", "experimental": "Latent Effects of HPR on Arresting A2E Accumulation —One feature identified during the HPR trials was a therapeutic latency effect following withdrawal of HPR. In these studies, chronic treatment of abca4 −/− mice (10 mg HPR/kg, i.p.) was stopped after 28 days. A2E levels were then measured 12, 28 and 42 days following the final HPR dose. […] This effect was not observed in animals treated with 13-cis retinoic acid, a result that may be due to the capacity of RPE cells to adapt to, and maintain, low steady-state retinoid levels. […] These findings indicate that high steady-state levels of competitive inhibitors such as 13-cis retinoic acid must be maintained for therapeutic efficacy."}}}
{"smiles": "CC1=C(/C=C/C(C)=C/C=C/C(C)=C/C(=O)Nc2ccc(O)cc2)C(C)(C)CCC1", "note": "[HPR, N-(4-hydroxyphenyl)retinamide]", "values": [{"measurement": "reduction in A2PE-H2", "setting": "[1]; HPR 2.5 mg/kg daily, 28 days, 2-month old mice", "result": "~47", "unit": "%"}, {"measurement": "less A2E accumulated compared to DMSO littermates", "setting": "[1]; HPR 10 mg/kg daily, 28 days", "result": "~50", "unit": "%"}, {"measurement": "reduction of A2E", "setting": "[1]; HPR 20 mg/kg ip daily, 28 days", "result": 55, "unit": "%"}, {"measurement": "reduction of A2PE-H2", "setting": "[1]; HPR 20 mg/kg ip daily, 28 days", "result": 70, "unit": "%"}, {"measurement": "accumulation of A2E and lipofuscin autofluorescence in the RPE (in words)", "setting": "[1]; mouse, in vivo", "result": "arrested accumulation"}, {"measurement": "effect on serum retinol (in words)", "setting": "[2]", "result": "profound reductions"}, {"measurement": "effect on serum retinol (in words)", "setting": "[2]; listed as Fenretinide", "result": "potently and reversibly reduces"}, {"measurement": "effect on serum retinol (in words)", "setting": "[2]; listed as fenretinide", "result": "lowered serum retinol levels"}, {"measurement": "serum retinol reduction", "setting": "[2]; HPR 2.5 mg/kg daily, 28 days", "result": 20, "unit": "%"}, {"measurement": "reduction of RBP-retinol in the circulation", "setting": "[2]; HPR 10 mg/kg daily, 28 days", "result": "~50", "unit": "%"}, {"measurement": "effect on steady-state retinal levels or regeneration of visual chromophore", "setting": "[3]", "result": "essentially no effect"}, {"measurement": "A2E levels after withdrawal (therapeutic latency effect)", "setting": "[4]", "result": "remained persistently low for several weeks"}]}
